Data on 15 compounds can be found in PubChem BioAssay (NCI).

Among the test systems are SK-MEL-2 melanoma; MALME-3M melanoma; SNB-75 CNS; SF-539 CNS; RXF 393 renal; 786-0 renal; MOLT-4 leukemia; NCI-H226 lung; SR leukemia; BT-549 breast.
Assay in all cases: DTP human tumour cell line panel, 48 h

Usually TGI stands for the concentration giving total growth inhibition. Read a high TGI as less potent growth arrest. A word on the GI50: it is the concentration giving 50% growth inhibition.

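Five concentrations, 48 hours, 96-well plates. GI50: concentration for 50% inhibition of growth. TGI marks complete inhibition of growth.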

With `CCOC(=O)C1(Br)C(c2ccccc2)NC(=O)N(C2OC(COC(=O)c3ccccc3)C(OC(=O)c3ccccc3)C2OC(=O)c2ccccc2)C1(C)Br` (centres undefined), the TGI in the test with SK-MEL-2 melanoma was greater than 100 µM; with MALME-3M melanoma, 66.7 µM; in the test with SNB-75 CNS it was greater than 90.7 µM; in the test on SF-539 CNS it was greater than 100 µM; in the test with RXF 393 renal, 31 µM; in the test with 786-0 renal, greater than 100 µM. In the test with MOLT-4 leukemia, this compound registered a TGI of 59 µM.
Regarding `NC1=NN(c2ccccc2)C(=O)C1/C(=N\NC(=O)c1cc2ccccc2cc1O)C(=O)Nc1nc([N+](=O)[O-])cs1` (centres undefined), the TGI in the test on SK-MEL-2 melanoma is greater than 86.6 µM; in the test on MALME-3M melanoma, greater than 100 µM; in the test on NCI-H226 lung it was greater than 100 µM; in the test with SNB-75 CNS, greater than 100 µM; in the test on SF-539 CNS, 59.6 µM; with RXF 393 renal, 7.27 µM. Besides, the TGI in the test on SR leukemia is 58.3 µM; in the test on 786-0 renal, greater than 100 µM; in the test with MOLT-4 leukemia, 58.8 µM.
Take `O=C(O)c1c([N+](=O)[O-])cc(C(F)(F)F)cc1[N+](=O)[O-]`: the TGI in the test on SK-MEL-2 melanoma, in the test with NCI-H226 lung, with SF-539 CNS, in the test on RXF 393 renal, in the test on SR leukemia and with 786-0 renal was greater than 100 µM each time. Moreover, the TGI in the test on MOLT-4 leukemia is greater than 100 µM.
Regarding `O=C(c1ccco1)c1ccccc1C(=O)c1ccco1`, the TGI in the test on SK-MEL-2 melanoma, with MALME-3M melanoma, in the test with NCI-H226 lung, in the test with SNB-75 CNS, in the test with SF-539 CNS and in the test with RXF 393 renal was greater than 100 µM throughout. The TGI with SR leukemia, in the test on 786-0 renal and with MOLT-4 leukemia was greater than 100 µM in each case.
On to `CN(C)CCNC(=O)c1cccc2ccc(-c3cccnc3)nc12`, for which the TGI in the test on SK-MEL-2 melanoma amounted to 21.4 µM; with MALME-3M melanoma, 16.8 µM; with NCI-H226 lung, 22.2 µM; in the test with SNB-75 CNS, 23.7 µM; in the test with SF-539 CNS, 23.7 µM; with RXF 393 renal, 19.5 µM. Moreover, the TGI with 786-0 renal and with MOLT-4 leukemia was greater than 100 µM throughout.
`COc1cc[c]([Sb]([Br])([CH]=C(C)C)([CH]=C(C)C)[CH]=C(C)C)cc1`: the GI50 in the test on SK-MEL-2 melanoma was 5.79 µM; in the test with MALME-3M melanoma, 2.28 µM; with RXF 393 renal, 8.8 µM; with SR leukemia it was 4.28 µM; in the test on 786-0 renal, 13.6 µM; with MOLT-4 leukemia, 10.6 µM. In addition, the concentration for total growth inhibition (TGI) in the test on SK-MEL-2 melanoma was 51.3 µM; with MALME-3M melanoma, greater than 100 µM; in the test with RXF 393 renal it was 59.1 µM; in the test on SR leukemia, greater than 100 µM; in the test on 786-0 renal it was greater than 100 µM; in the test with MOLT-4 leukemia, greater than 100 µM.
On to `CCCCCCCCCCCCC/C=C1\C[C@H](O)COC1=O`, for which the TGI came to 31.1 µM in the test with SK-MEL-2 melanoma; 35.5 µM with MALME-3M melanoma; 32.9 µM in the test on NCI-H226 lung; 30.7 µM in the test on SNB-75 CNS; 35.8 µM in the test on SF-539 CNS; 42.6 µM in the test with RXF 393 renal. Besides, the TGI in the test on SR leukemia was found to be 51.2 µM; in the test on 786-0 renal, 29.5 µM.
Turning to `CC1(C(=O)NCCN(CCNC(=O)C2(C)CC3(C)CC(C)(C2)C(=O)NC3=O)CCNC(=O)C2(C)CC3(C)CC(C)(C2)C(=O)NC3=O)CC2(C)CC(C)(C1)C(=O)NC2=O` (centres undefined), the TGI in the test with SK-MEL-2 melanoma, in the test with SNB-75 CNS, in the test with SF-539 CNS, with RXF 393 renal, with SR leukemia and in the test with 786-0 renal was greater than 100 µM in each case. The TGI in the test with MOLT-4 leukemia was greater than 100 µM.
Take `COc1ccc2nc3ccccc3c(NCCCCCN(CCCl)CCCl)c2c1`: the TGI in the test with NCI-H226 lung is 0.801 µM; in the test on SNB-75 CNS it was 0.911 µM; in the test on SR leukemia, 0.0101 µM; in the test with 786-0 renal, 0.137 µM.
As for `O=C(c1ccccn1)c1nc(-c2ccc(Cl)c(Cl)c2)nc2ccc(Cl)cc12`, the TGI with SK-MEL-2 melanoma was greater than 100 µM; in the test on MALME-3M melanoma it was greater than 100 µM; with NCI-H226 lung it was greater than 100 µM; with SNB-75 CNS, 35 µM; with SF-539 CNS, 56.4 µM; with RXF 393 renal, 46.8 µM. Also, the TGI in the test on 786-0 renal and in the test on MOLT-4 leukemia was greater than 100 µM throughout.
As for `CCCCCCCCCCCCOC1C(CNCC2OC3OC(C)(C)OC3C2NC(=O)Nc2ccc(C(F)(F)F)cc2)OC2OC(C)(C)OC21` (centres undefined), the GI50 in the test on SK-MEL-2 melanoma was 9.09 µM; with MALME-3M melanoma, 3.39 µM; in the test on NCI-H226 lung, 7.59 µM; with SNB-75 CNS it was 6.04 µM; in the test on SF-539 CNS it was 7.09 µM; in the test on RXF 393 renal it was 3.37 µM. Moreover, the GI50 in the test on BT-549 breast was 7.44 µM; with 786-0 renal, 7.62 µM. The concentration for total growth inhibition (TGI) is 19.3 µM in the test on SK-MEL-2 melanoma; 13.7 µM with MALME-3M melanoma; 16.4 µM in the test on NCI-H226 lung; 13.4 µM with SNB-75 CNS; 13.9 µM in the test with SF-539 CNS; 8.99 µM with RXF 393 renal. Further, the TGI in the test on BT-549 breast and in the test on 786-0 renal was 14.4 µM each time.
`C/C=C/C(=O)[C@@H](O)C(C)C`: the TGI in the test on SK-MEL-2 melanoma, in the test on MALME-3M melanoma, with NCI-H226 lung, in the test with SNB-75 CNS, in the test with RXF 393 renal and in the test with SR leukemia was greater than 100 µM each time. In addition, the TGI with 786-0 renal and in the test with MOLT-4 leukemia was greater than 100 µM throughout.
Regarding `Clc1ccccc1C1N2CCCCC2[C@@H]2c3[nH]c4ccccc4c3CCN12` (some centres undefined), the TGI worked out at 34.1 µM in the test on SK-MEL-2 melanoma; 22.1 µM in the test on MALME-3M melanoma; 66.7 µM in the test with SNB-75 CNS; 30.9 µM with SF-539 CNS; 40.2 µM in the test with RXF 393 renal; 42.2 µM in the test on 786-0 renal. The TGI in the test with MOLT-4 leukemia worked out at 82.6 µM.
`N.N.N.N.N.N#N.[Cl-].[Os+7]`: the GI50 in the test with SK-MEL-2 melanoma, with MALME-3M melanoma, with NCI-H226 lung, in the test on SNB-75 CNS, in the test on SF-539 CNS and in the test on RXF 393 renal was greater than 100 µM throughout. In addition, the GI50 in the test with SR leukemia and with 786-0 renal was greater than 100 µM throughout. Further, the TGI in the test on SK-MEL-2 melanoma, with MALME-3M melanoma, with NCI-H226 lung, in the test with SNB-75 CNS, in the test on SF-539 CNS and in the test on RXF 393 renal was greater than 100 µM throughout. Besides, the TGI in the test with SR leukemia and with 786-0 renal was greater than 100 µM each time.
Regarding `CCCCNC(=O)OCC(COc1ccccc1OC)OC(=O)NCCCC` (centres undefined), the TGI with SK-MEL-2 melanoma, in the test with MALME-3M melanoma, with NCI-H226 lung, with SNB-75 CNS, in the test on SF-539 CNS and in the test with RXF 393 renal was greater than 100 µM each time. For the same compound, the TGI with 786-0 renal and in the test with MOLT-4 leukemia was greater than 100 µM each time.
